# In patent US12582657B2, “Combination therapy including a KRAS G12C inhibitor and one or more additional pharmaceutically active agents for the treatment of cancers” (Amgen Inc., priority 2018, dated 2026):
# Where two headings read alike, the source gives them in different places.
# Columns and labels:
# [1] = tested on: ERK1/2 phosphorylation in NCI-H358 tumors; test: Tumor pharmacodynamic assay (p-ERK, MSD immunoassay); conditions: Mus musculus, NCI-H358, po, 2 h, read-out: inhibition of p-ERK, reduction compared to control
# [2] = tested on: ERK1/2 phosphorylation in MIA PaCa-2 T2 tumors; test: as above; type: in vivo, mouse
# [3] = tested on: ERK1/2 phosphorylation in SW837 cells; test: Basal ERK1/2 phosphorylation assay (MSD); type: cell-based; conditions: Homo sapiens; SW837, colon, KRAS p.G12C heterozygous; 2-hour treatment
# Experimental: (§1) For cellular assays, 2.5E+04 cells were seeded per well in 96-well plates and incubated at 37° C., 5% CO2, o/n. The following day, 3-fold serially-diluted compound or DMSO was added to the cells, and the plates were incubated at 37° C., 5% CO2 for 2 hours. […] Signal intensity corresponded with phospho-ERK1/2 levels and was normalized DMSO control.
# [4] = tested on: ERK1/2 phosphorylation in LS 174T cells; test: Basal ERK1/2 phosphorylation assay (MSD); type: cell-based; conditions: Homo sapiens, LS174T, colon, KRAS p.G12D heterozygous, 2-hour treatment
# Experimental: as §1
# [5] = tested on: ERK1/2 phosphorylation in COLO-205 cells; test: Basal ERK1/2 phosphorylation assay (MSD); type: cell-based; conditions: Homo sapiens; COLO-205, colon, KRAS WT BRAF p.V600E; 2-hour treatment
# Experimental: as §1
# [6] = tested on: ERK1/2 phosphorylation in MIA PaCa-2 cells; test: Basal ERK1/2 phosphorylation assay (MSD); type: cell-based; conditions: Homo sapiens, 2-hour treatment
# Experimental: as §1
# [7] = tested on: ERK1/2 phosphorylation in Calu-1 cells; test: Basal ERK1/2 phosphorylation assay (MSD); type: cell-based; conditions: Homo sapiens; Calu-1, lung, KRAS p.G12C heterozygous; 2-hour treatment
# Experimental: as §1
# [8] = tested on: ERK1/2 phosphorylation in SW1463 cells; test: Basal ERK1/2 phosphorylation assay (MSD); type: cell-based; conditions: Homo sapiens; SW1463, colon, KRAS p.G12C homozygous; 2-hour treatment
# Experimental: as §1
# [9] = tested on: ERK1/2 phosphorylation in HCC-827 cells; test: Basal ERK1/2 phosphorylation assay (MSD); type: cell-based; conditions: Homo sapiens, HCC827; HCC-827, lung, KRAS WT EGFR p.E746_A750del; 2-hour treatment
# Experimental: as §1
# [10] = tested on: ERK1/2 phosphorylation in NCI-H23 cells; test: Basal ERK1/2 phosphorylation assay (MSD); type: cell-based; conditions: Homo sapiens; NCI-H23, lung, KRAS p.G12C heterozygous; 2-hour treatment
# Experimental: as §1
# [11] = tested on: ERK1/2 phosphorylation in AsPC-1 cells; test: Basal ERK1/2 phosphorylation assay (MSD); type: cell-based; conditions: Homo sapiens, ASPC1; AsPC-1, pancreas, KRAS p.G12D homozygous; 2-hour treatment
# Experimental: as §1
# [12] = tested on: ERK1/2 phosphorylation in SW480 cells; test: Basal ERK1/2 phosphorylation assay (MSD); type: cell-based; conditions: Homo sapiens; SW480, colon, KRAS p.G12V homozygous; 2-hour treatment
# Experimental: as §1
# [13] = tested on: ERK1/2 phosphorylation in NCI-H2122 cells; test: Basal ERK1/2 phosphorylation assay (MSD); type: cell-based; conditions: Homo sapiens; NCI-H2122, lung, KRAS p.G12C homozygous; 2-hour treatment
# Experimental: as §1
# [14] = tested on: ERK1/2 phosphorylation in NCI-H1322 cells; test: Basal ERK1/2 phosphorylation assay (MSD); type: cell-based; conditions: Homo sapiens, 2 h, read-out: Basal p-ERK1/2 IC50
# Experimental: as §1
# [15] = tested on: ERK1/2 phosphorylation in NCI-H2030 cells; test: Basal ERK1/2 phosphorylation assay (MSD); type: cell-based; conditions: Homo sapiens; NCI-H2030, lung, KRAS p.G12C homozygous; 2-hour treatment
# Experimental: as §1
# [16] = tested on: ERK1/2 phosphorylation in NCI-H358 cells; test: Basal ERK1/2 phosphorylation assay (MSD); type: cell-based; conditions: Homo sapiens
# Experimental: as §1
# [17] = tested on: ERK1/2 phosphorylation in A-427 cells; test: Basal ERK1/2 phosphorylation assay (MSD); type: cell-based; conditions: Homo sapiens; A-427, lung, KRAS p.G12D heterozygous; 2-hour treatment
# Experimental: as §1
# [18] = tested on: ERK1/2 phosphorylation in UM-UC-3 cells; test: Basal ERK1/2 phosphorylation assay (MSD); type: cell-based; conditions: Homo sapiens, UMUC3; UM-UC-3, bladder, KRAS p.G12C homozygous; 2-hour treatment
# Experimental: as §1
# [19] = tested on: NCI-H2122 cells; test: Spheroid cell viability assay (CellTiter-Glo 3D); type: cell-based; conditions: Homo sapiens; NCI-H2122, lung, KRAS p.G12C homozygous; 72-hour treatment, spheroid culture
# Experimental: (§2) For spheroid viability assays, 2.5-4.0E+04 cells were seeded per well in 96-well spheroid microplates (Corning) and incubated at 37° C., 5% CO2 for 24 hours. The same procedure was followed as described above, except viability was measured using a CellTiter-Glo® 3D Cell Viability Assay kit (Promega) according to the manufacturer's protocol.
# [20] = tested on: NCI-H1373 cells; test: Spheroid cell viability assay (CellTiter-Glo 3D); type: cell-based; conditions: Homo sapiens; NCI-H1373, lung, KRAS p.G12C homozygous; 72-hour treatment, spheroid culture
# Experimental: as §2
# [21] = tested on: SW1573 cells; test: Spheroid cell viability assay (CellTiter-Glo 3D); type: cell-based; conditions: Homo sapiens; SW1573, lung, KRAS p.G12C homozygous; 72-hour treatment, spheroid culture
# Experimental: as §2
# [22] = tested on: NCI-H358 cells; test: Spheroid cell viability assay (CellTiter-Glo 3D); type: cell-based; conditions: Homo sapiens; NCI-H358, lung, KRAS p.G12C heterozygous; 72-hour treatment, spheroid culture
# Experimental: as §2
# [23] = tested on: MIA PaCa-2 cells; test: Spheroid cell viability assay (CellTiter-Glo 3D); type: cell-based; conditions: Homo sapiens; MIA PaCa-2, pancreas, KRAS p.G12C homozygous; 72-hour treatment, spheroid culture
# Experimental: as §2
# [24] = tested on: KRASp.G12V (SW480-1AC) tumor xenografts; test: Tumor xenograft efficacy study; type: in vivo, mouse
# [25] = physchem; conditions: 5 mM glutathione
compound,measurement,setting,value
"C=CC(=O)N1CCN(c2nc(=O)n(-c3c(C)ccnc3C(C)C)c3nc(-c4c(O)cccc4F)c(F)cc23)[C@@H](C)C1 (atropisomer, axis not shown) [AMG 510, 6-fluoro-7-(2-fluoro-6-hydroxyphenyl)-1-(4-methyl-2-(2-propanyl)-3-pyridinyl)-4-((2S)-2-methyl-4-(2-propenoyl)-1-piperazinyl)pyrido[2,3-d]pyrimidin-2(1H)-one]",inhibition at 100 mg/kg,[1],83%
same,inhibition at 100 mg/kg,"[2]; Mus musculus, MIA PaCa-2 T2, 100 mg/kg oral single dose, 2 hours post-treatment, read-out: inhibition of p-ERK, reduction compared to control",69%
same,time of maximal inhibition of p-ERK post-treatment,[2]; single dose 10 mg/kg,2 to 4 h
same,IC50,[3],18 ± 2 nM
same,IC50,[4],> 10000 nM
same,IC50,[5],> 10000 nM
same,IC50,"[6]; second of two KRASp.G12C cell lines (FIG. 40E: MIA PaCa-2), read-out: p-ERK IC50",~30 nM
same,IC50,"[6]; MIA PaCa-2, pancreas, KRAS p.G12C homozygous, read-out: Basal p-ERK1/2 IC50",36 ± 2 nM
same,IC50,[7],13 ± 4 nM
same,IC50,[8],33 ± 4 nM
same,IC50,[9],> 10000 nM
same,IC50,[10],90 ± 17 nM
same,IC50,[11],> 10000 nM
same,IC50,[12],> 10000 nM
same,IC50,[13],123 ± 6 nM
same,IC50,[14],> 10000 nM
same,IC50,[15],40 ± 20 nM
same,IC50,"[16]; NCI-H358, 2 h, read-out: p-ERK IC50",~20 nM
same,IC50,"[16]; NCI-H358, lung, KRAS p.G12C heterozygous, 2-hour treatment, read-out: Basal p-ERK1/2 IC50",35 ± 3 nM
same,IC50,[17],> 10000 nM
same,IC50,[18],29 ± 16 nM
same,IC50,[19],9 ± 2 nM
same,IC50,[20],5 ± 2 nM
same,IC50,[21],> 10000 nM
same,IC50,[22],3 ± 2 nM
same,IC50,[23],1 ± 1 nM
same,tumor growth,[24],no effect
same,half-life,[25],3.27 h
